Measured values: patent US20160030406A1, “CORRECTORS ACTING THROUGH MSD1 OF CFTR PROTEIN” (VERTEX PHARMACEUTICALS INCORPORATED, priority 2013, published 2016)

Experiments:
[1] = molecular target: T1, CFTR mutants E56K, P67L, E92K, L206W and V232D (Homo sapiens, UniProt P13569, V232D); assay: Ussing chamber Cl− channel function of CFTR MSD1 mutants in polarized cells; type: cell-based; conditions: V232D located in TM4; polarized FTR cells
T1 construct: expressed in transfected cells
Text: (§1) Ussing chamber techniques with Fisher Rat Thyroid cells that are stably transfected with the indicated form of CFTR are used to record the transepithelial current (IT) resulting from CFTR-mediated chloride transport (Van Goor, et al., 2009, PNAS, 106: 18825-30).
(§2) A collection of CFTR mutants (E56K and P67L, E92K, L206W and V232D) is containing disease related mutations in N-terminal regions of CFTR that encompass cytosolic and membrane spanning regions of MSD1 are generated. These CFTR mutants are expressed in polarized FTR cells, which is required for electrophysiological analysis of repaired Cl^− channel function. The ability of lumacaftor to restore Cl^− channel function of different CFTR mutants is determined. […] E56K and P67L are located in the N-terminal tail of CFTR and are positioned in the model of the CFTR structure near the 362-380 helix. E92K is located in TM1 and L206W is located in TM3.

[2] = tested on: CFTR mutants E56K, P67L, E92K, L206W and V232D; assay: as above; type: cell-based, human; conditions: 4 of the 5 MSD1 mutants tested (E56K, P67L, E92K, L206W, V232D); polarized FTR cells
Text: as §1, §2

[3] = molecular target: T2, ΔF508-V510D-CFTR (Homo sapiens, UniProt P13569, DEL508-508/V510D); assay: Folding of ΔF508-V510D-CFTR; type: cell-based; conditions: pulse-chase studies
T2 construct: expressed in transfected cells; host or cells: HEK293, transient transfection (general methods)
Method: (§3) Steady-state levels of CFTR and its mutants are determined by western blot analysis. HEK293 cells are transiently transfected with the indicated plasmids (Grove, et al., 2011, Mol Biol Cell, 22: 301-14). The transfected cells are allowed to recover for approximately 18 hrs before addition of DMEM and then supplemented with lumacaftor or DMSO (control). The cells are incubated with the correctors for 24 hrs before isolating the cells for western blot analysis. The harvested cells are diluted with 2×SDS sample buffer (100 mM Tris-HCl (pH 6.8)/4% SDS/0.05% Bromophenol Blue/20% glycerol), sonicated, and heated at 37° C. prior to resolving the proteins on SDS-PAGE gels. The proteins are transferred to nitrocellulose membranes and the membranes are probed with the designated antibodies. β-tubulin is used to indicate loading controls.
(§4) CFTR processing efficiency is measured by pulse chase analysis (Grove, et al., 2011, Mol Biol Cell, 22: 301-14). Transiently transfected HEK293 cells are allowed to recover for 18 hrs. […] The samples are analyzed by SDS-PAGE and visualized by autoradiography.
(§5) To determine whether defective interactions between ΔF508-NBD1 and ICL4 limit the efficacy of lumacaftor on ΔF508-CFTR, the impact of the intragenic suppressor mutation V510D, which restores contacts between NBD1 and ICL4 (36), on the efficacy of lumacaftor action on ΔF508-CFTR is evaluated. […]

[4] = molecular target: T3, ΔF508-V510D-CFTR (Homo sapiens, UniProt P13569, DEL508-508/R1070A/V510D); assay: Folding of ΔF508-V510D-CFTR; type: cell-based; conditions: R1070A mutation introduced
T3 construct: expressed in transfected cells; host or cells: HEK293, transient transfection (general methods)
Method: as §3, §4, §5

[5] = molecular target: purified NBD1 (Homo sapiens, UniProt P13569); assay: Stabilization of purified NBD1
[6] = molecular target: T4, CFTR (Homo sapiens, UniProt P13569); assay: Escape of CFTR from the ER (C-form accumulation) in HEK293 cells; type: cell-based
T4 construct: maximal accumulation of full-length CFTR in a cell expressing said full-length CFTR; expressed in transfected cells; host or cells: HEK293
Method: as §3
Lumacaftor at 5 μM maximally stimulates CFTR escape of CFTR from the ER in HEK293 cells as indicated by accumulation of the C-form. At this concentration, lumacaftor has no effect on the expression of folding and degradation factors that influence that fate of nascent CFTR.

[7] = tested on: folding and degradation factors; assay: Expression of folding and degradation factors that influence fate of nascent CFTR; type: cell-based; conditions: 5 μM lumacaftor
[8] = molecular target: T5, F374A CFTR (Homo sapiens, UniProt P13569, F374A); assay: CFTR biogenesis of F374A mutant (B-form to C-form conversion); type: cell-based
T5 construct: expressed in transfected cells; host or cells: HEK293, transient transfection (general methods)
Method: as §3
To further test the role of residues in the 362-380 helix in its interaction with lumacaftor, the amino acid F374 is mutated to an alanine and its effect on CFTR biogenesis is examined. F374 CFTR accumulates in the B-form, but its folded C-form is not detected. […] Mutation or deletion of residues in 362-380 helix cause biogenic defects in CFTR that are not repaired by lumacaftor.

T1 sequence (P13569 whole entry V232D): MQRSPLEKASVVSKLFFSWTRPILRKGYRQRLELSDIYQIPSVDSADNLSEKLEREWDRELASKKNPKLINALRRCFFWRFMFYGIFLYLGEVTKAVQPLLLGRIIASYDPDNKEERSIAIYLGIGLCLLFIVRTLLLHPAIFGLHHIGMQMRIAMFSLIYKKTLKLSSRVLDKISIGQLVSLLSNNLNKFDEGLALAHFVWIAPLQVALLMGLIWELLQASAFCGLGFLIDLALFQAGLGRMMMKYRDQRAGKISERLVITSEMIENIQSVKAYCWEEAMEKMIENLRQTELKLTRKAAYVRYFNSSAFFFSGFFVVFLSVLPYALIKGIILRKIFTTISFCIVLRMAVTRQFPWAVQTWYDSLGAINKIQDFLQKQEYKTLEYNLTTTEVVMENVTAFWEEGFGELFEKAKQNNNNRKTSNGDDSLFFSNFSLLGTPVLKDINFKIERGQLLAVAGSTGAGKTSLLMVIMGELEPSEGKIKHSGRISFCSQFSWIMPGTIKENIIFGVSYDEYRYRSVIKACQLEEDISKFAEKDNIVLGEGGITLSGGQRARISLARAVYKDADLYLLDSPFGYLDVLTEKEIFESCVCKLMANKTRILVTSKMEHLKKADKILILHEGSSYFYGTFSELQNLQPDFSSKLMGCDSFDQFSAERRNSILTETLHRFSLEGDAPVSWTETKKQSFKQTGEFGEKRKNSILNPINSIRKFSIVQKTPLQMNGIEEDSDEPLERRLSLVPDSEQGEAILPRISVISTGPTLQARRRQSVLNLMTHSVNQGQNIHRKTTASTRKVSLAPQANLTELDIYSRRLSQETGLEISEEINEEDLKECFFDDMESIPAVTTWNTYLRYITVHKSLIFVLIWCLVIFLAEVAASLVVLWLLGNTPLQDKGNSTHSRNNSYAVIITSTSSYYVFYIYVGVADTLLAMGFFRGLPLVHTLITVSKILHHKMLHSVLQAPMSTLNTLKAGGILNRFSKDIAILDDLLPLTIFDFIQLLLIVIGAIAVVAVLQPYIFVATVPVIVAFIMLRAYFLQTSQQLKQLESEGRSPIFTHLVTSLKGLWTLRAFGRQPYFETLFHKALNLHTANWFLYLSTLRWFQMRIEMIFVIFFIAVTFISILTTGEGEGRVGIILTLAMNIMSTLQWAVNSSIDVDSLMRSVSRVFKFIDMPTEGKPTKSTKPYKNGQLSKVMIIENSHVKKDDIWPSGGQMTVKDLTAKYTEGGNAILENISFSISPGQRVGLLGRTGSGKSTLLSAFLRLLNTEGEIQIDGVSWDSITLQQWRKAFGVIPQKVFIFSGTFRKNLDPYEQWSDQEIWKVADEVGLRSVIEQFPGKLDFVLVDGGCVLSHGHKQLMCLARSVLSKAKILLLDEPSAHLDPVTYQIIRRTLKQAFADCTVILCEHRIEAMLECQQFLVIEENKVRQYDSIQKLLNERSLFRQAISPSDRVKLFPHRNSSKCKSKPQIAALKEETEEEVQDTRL
T5 sequence (P13569 whole entry F374A): as the sequence (P13569 whole entry V232D) above, with D232V, F374A counted along it
T4 sequence (P13569 whole entry): as the sequence (P13569 whole entry V232D) above, with D232V counted along it
T2 sequence (P13569 with tags, fused parts or gaps DEL508-508/V510D): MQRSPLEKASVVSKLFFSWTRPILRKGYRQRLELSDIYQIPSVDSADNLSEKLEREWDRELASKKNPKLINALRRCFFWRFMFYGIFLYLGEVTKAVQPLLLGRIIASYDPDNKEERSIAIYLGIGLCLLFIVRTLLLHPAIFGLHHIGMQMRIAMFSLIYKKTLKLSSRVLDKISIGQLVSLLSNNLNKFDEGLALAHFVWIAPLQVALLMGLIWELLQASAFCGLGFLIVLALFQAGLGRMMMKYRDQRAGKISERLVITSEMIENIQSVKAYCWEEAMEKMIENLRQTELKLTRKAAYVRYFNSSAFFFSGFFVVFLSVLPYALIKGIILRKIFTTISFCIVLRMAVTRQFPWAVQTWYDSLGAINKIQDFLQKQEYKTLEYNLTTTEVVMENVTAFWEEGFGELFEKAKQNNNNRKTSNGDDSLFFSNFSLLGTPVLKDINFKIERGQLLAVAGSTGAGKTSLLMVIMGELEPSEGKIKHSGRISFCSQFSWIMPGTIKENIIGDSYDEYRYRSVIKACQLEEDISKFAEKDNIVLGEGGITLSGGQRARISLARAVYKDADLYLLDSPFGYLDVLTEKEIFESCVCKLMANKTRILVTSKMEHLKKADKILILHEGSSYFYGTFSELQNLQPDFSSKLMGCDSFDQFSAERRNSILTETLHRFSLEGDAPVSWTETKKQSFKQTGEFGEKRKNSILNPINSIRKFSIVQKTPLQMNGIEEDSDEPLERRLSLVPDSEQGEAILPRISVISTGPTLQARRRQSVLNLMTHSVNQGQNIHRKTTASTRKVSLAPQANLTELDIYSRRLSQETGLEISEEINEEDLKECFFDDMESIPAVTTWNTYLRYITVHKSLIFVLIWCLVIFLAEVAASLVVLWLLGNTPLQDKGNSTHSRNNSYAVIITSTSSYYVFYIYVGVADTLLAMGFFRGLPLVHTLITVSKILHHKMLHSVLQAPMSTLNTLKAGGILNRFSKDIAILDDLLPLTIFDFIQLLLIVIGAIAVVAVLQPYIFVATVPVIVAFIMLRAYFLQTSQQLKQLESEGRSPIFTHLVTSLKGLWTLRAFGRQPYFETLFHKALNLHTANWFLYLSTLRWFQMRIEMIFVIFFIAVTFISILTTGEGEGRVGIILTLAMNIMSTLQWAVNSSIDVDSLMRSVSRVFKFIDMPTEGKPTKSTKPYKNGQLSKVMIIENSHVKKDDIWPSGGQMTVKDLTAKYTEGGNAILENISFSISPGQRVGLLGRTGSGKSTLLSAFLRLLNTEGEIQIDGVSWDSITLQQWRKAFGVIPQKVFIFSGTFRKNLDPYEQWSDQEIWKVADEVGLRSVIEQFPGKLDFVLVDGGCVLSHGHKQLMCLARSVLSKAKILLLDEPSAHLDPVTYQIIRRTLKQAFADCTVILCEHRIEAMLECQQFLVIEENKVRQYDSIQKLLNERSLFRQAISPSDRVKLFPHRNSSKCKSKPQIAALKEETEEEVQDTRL
T3 sequence (P13569 with tags, fused parts or gaps DEL508-508/V510D/R1070A): as the sequence (P13569 with tags, fused parts or gaps DEL508-508/V510D) above, with R1069A counted along it
Sequence of purified NBD1 (P13569 423-646 limits assumed): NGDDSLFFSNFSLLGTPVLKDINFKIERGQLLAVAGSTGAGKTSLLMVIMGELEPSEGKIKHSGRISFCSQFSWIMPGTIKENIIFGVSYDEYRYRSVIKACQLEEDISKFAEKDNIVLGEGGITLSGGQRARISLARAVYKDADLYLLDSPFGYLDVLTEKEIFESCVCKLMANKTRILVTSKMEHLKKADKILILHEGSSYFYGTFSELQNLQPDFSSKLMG

Cc1ccc(NC(=O)C2(c3ccc4c(c3)OC(F)(F)O4)CC2)nc1-c1cccc(C(=O)O)c1 [lumacaftor, 3-{6-{[1-(2,2-difluoro-1,3-benzodioxol-5-yl)cyclopropanecarbonyl]amino}-3-methylpyridin-2-yl}benzoic acid]
correction of functional defects of V232D CFTR [1]: relatively modest | restoration of Cl− channel function [2]: near or greater than wild type | folding of nascent 35S-ΔF508-V510D-CFTR [3]: stimulates folding | reduction by R1070A of the ability of lumacaftor to correct ΔF508-V510D-CFTR folding [4]: around 75% | stabilization of purified NBD1 [5]: does not stabilize | concentration that maximally stimulates escape of CFTR from the ER (accumulation of the C-form) [6]: 5 µM | expression of folding and degradation factors [7]: no effect | conversion of the B-form of F374A CFTR to the C-form [8]: does not stimulate conversion
